Source: article PMC6193035, “Novel small molecules affecting cell membrane as potential therapeutics for avian pathogenic Escherichia coli” (Scientific Reports, 2018)
Converted amounts (≈) assume the structure as drawn. Marks after values point to notes of the source that are not given here.

Assays:
APEC O1-63 = assay: MIC and MBC determination in M63 media; assay type: cell-based; conditions: Escherichia coli; APEC O1-63, M63 media
APEC O78 [1] = assay: Crystal violet (CV) uptake assay; assay type: cell-based, Escherichia coli; conditions: 2X MBC, 30 mins; P < 0.05, Student's t-test
Procedure: (§1) Membrane permeability assays (crystal violet (CV) uptake and loss of 260/280 nm absorbing materials) were conducted as described previously. […] CV uptake was measured using the formula: (OD DMSO − OD SM/OD DMSO × 100). Two independent experiments in duplicates were conducted.

APEC O15 = assay: MIC and MBC determination in M63 media; assay type: cell-based; conditions: Escherichia coli
APEC O8 = assay: MIC and MBC determination in M63 media; assay type: cell-based; conditions: Escherichia coli
APEC O1 = assay: MIC and MBC determination in M63 media; assay type: cell-based; conditions: Escherichia coli
[2] = tested on: biofilm embedded APEC O78; assay: MBEC High-throughput (HTP) assay; assay type: cell-based, Escherichia coli; conditions: for MBEC as multiple of MIC: tested 0.5X to 8X MIC
Procedure: The effect of cidal SMs against biofilm embedded APEC was determined using MBEC High-throughput (HTP) assay (Innovotech Inc., AB, Canada)[22]. Briefly, 150 μL of 0.05 OD600 adjusted APEC O78 culture was aliquoted into each well of the MBEC device containing polystyrene pegs and incubated at 37 °C for 36 h in LB media under stationary condition. […] The plate was incubated in the dark for 18 h at 37 °C with rotation at 110 rpm. The DMSO (1%) and […] media were used as positive and negative controls, respectively. Following incubation, MIC of SMs in challenged plate was recorded. The SMs exposed pegs were then transferred to a new 96-well plate containing PBS and sonicated for 30 mins (Aquasonic ultrasonic cleaner, VWR) to disrupt the biofilm. The sonicated suspensions were ten-fold serially diluted and plated on LB agar plate. Biofilm embedded APEC bacteria were enumerated and minimum biofilm eradication concentration (MBEC) of SMs were determined as described previously. Two independent experiments were conducted.

APEC O109 = assay: MIC and MBC determination in M63 media; assay type: cell-based; conditions: Escherichia coli
APEC O18 = assay: MIC and MBC determination in M63 media; assay type: cell-based; conditions: Escherichia coli
APEC O2 = assay: MIC and MBC determination in M63 media; assay type: cell-based; conditions: Escherichia coli
APEC O78 [3] = assay: MIC and MBC determination in M63 media; assay type: cell-based, Escherichia coli; conditions: for MIC / MBC: Escherichia coli; for MBC: subculture on LB agar
Procedure: (§2) One microlitre SM of each concentration was transferred to each well of a 96-well plate containing 100 µL of the 0.05 OD600 adjusted APEC O78 culture in M63 media. Growth was monitored in Sunrise - Absorbance microplate reader as described above. MIC was indicated by lowest concentration of SM with non-elevated OD600 measurement. MBC was determined by absence of APEC growth on LB agar plate following subculture. […] Two independent experiments were conducted.

[4] = tested on: intracellular APEC O78, O2, and O1 in infected Caco-2, HD11, and THP1 cells; assay: Intracellular survival assay, statements over all serotypes and cells; assay type: cell-based, Escherichia coli; conditions: for minimal effective concentration: Escherichia coli, 6 h, O78, O2 and O1, Caco-2, HD11, THP-1, read-out: concentration clearing intracellular APEC
Procedure: (§3) Intracellular survival assay was conducted as described previously[28],[29] to determine the effect of cidal SMs on APEC survival in phagocytic (HD11, THP-1) and non-phagocytic (Caco-2) cells. Briefly, mid-logarithmic phase grown APEC O78, O1, and O2 were washed and adjusted to 1 × 10^7 CFU/mL in cell culture incomplete media (no FBS and antibiotics). One-hundred microlitres adjusted APEC suspension was added at multiplicity of infection (MOI) 10 to wells of 96-well cell culture plate containing cultured macrophage (HD11, THP-1) and epithelial cells (Caco-2) and incubated for 1 h and 3 h, respectively. […] The cells were then lysed with 100 µL of 0.1% Triton X-100 for 5 mins, serially diluted, and plated on LB agar plate to enumerate viable bacteria. The intracellular bacteria in SMs treated wells were compared with DMSO (1%) treated wells. Two independent experiments in duplicate wells for each concentration of SMs were conducted.

APEC O78 [5] = assay: Bacterial cytological profiling by confocal microscopy; assay type: cell-based, Escherichia coli; conditions: 2X MBC, 2 h
Procedure: Confocal microscopy was used for bacterial cytological profiling (BCP) to identify the cellular pathways targeted by SMs as described previously. […] After incubation, treated cultures were centrifuged, washed, and resuspended in 100 µL PBS. FM4-64 (#T13320 Molecular Probes/Invitrogen) (1 µg/mL) and SYTO-9 (#S34854 Molecular Probes/Invitrogen) (5 µM) were added to the bacterial cultures and incubated for 45 mins at room temperature with shaking at 150 rpm. Cultures were then centrifuged, washed, and resuspended in PBS to 1/10th volume of the original cultures.

APEC O2-211 = assay: MIC and MBC determination in M63 media; assay type: cell-based; conditions: Escherichia coli; APEC O2-211, M63 media
APEC O78-53 = assay: MIC and MBC determination in M63 media; assay type: cell-based; conditions: Escherichia coli; APEC O78-53, M63 media
Procedure: as §2

APEC O35 = assay: MIC and MBC determination in M63 media; assay type: cell-based; conditions: Escherichia coli
APEC O115 = assay: MIC and MBC determination in M63 media; assay type: cell-based; conditions: Escherichia coli
APEC O78 [6] = assay: Loss of 260/280 nm absorbing materials assay; assay type: cell-based, Escherichia coli; conditions: 2X MBC, 1 h; for Absorbance 280 nm of treated supernatant: DMSO 2.58; for Absorbance 280 nm of treated supernatant / Absorbance 260 nm of treated supernatant: superscript a P < 0.05 vs DMSO; for Absorbance 260 nm of treated supernatant: DMSO 3.77
Procedure: as §1

[7] = tested on: intracellular APEC O2 in THP-1 cells; assay: Intracellular survival assay; assay type: cell-based, Escherichia coli; conditions: for minimal effective concentration: Escherichia coli, O2, THP-1, 6 h treatment, read-out: SMs intracellular APEC clearance concentration; for concentration at which the SM significantly (P < 0.01) reduced intracellular APEC (superscript of t-statistic): O2, THP-1, 6 h
Procedure: as §3

[8] = tested on: intracellular APEC O2 in Caco-2 cells; assay: Intracellular survival assay; assay type: cell-based, Escherichia coli; conditions: for minimal effective concentration: Escherichia coli, O2, Caco-2, 6 h treatment, read-out: SMs intracellular APEC clearance concentration; for intracellular APEC clearance concentration as multiple of MIC (superscript): O2, Caco-2; for concentration at which the SM significantly (P < 0.01) reduced intracellular APEC (superscript of t-statistic): O2, Caco-2, 6 h
Procedure: as §3

Row | Structure (SMILES) | MBC (APEC O1-63) | MIC (APEC O1-63) | uptake of crystal violet compared with DMSO (APEC O78 [1]) | MBC (APEC O15) | MIC (APEC O15) | MBC (APEC O8) | MIC (APEC O8) | MBC (APEC O1) | MIC (APEC O1) | MBEC as multiple of MIC [2] | MBC (APEC O109) | MIC (APEC O109) | MBC (APEC O18) | MIC (APEC O18) | MBC (APEC O2) | MIC (APEC O2) | MIC (APEC O78 [3]) | MBC (APEC O78 [3]) | minimal effective concentration [4] | cytological profile (FM4-64 / SYTO-9 staining) (APEC O78 [5]) | further results
1 | CC(=O)OC(C(Br)C(=O)c1ccc([N+](=O)[O-])cc1)C(Cl)(Cl)Cl (stereo not drawn) [SM10] | 100 µM (≈ 43.3 µg/mL) | 50 µM (≈ 21.7 µg/mL) | increased the uptake of crystal violet | 100 µM (≈ 43.3 µg/mL) | 50 µM (≈ 21.7 µg/mL) | 50 µM (≈ 21.7 µg/mL) | 50 µM (≈ 21.7 µg/mL) | 25 µM (≈ 10.8 µg/mL) | 25 µM (≈ 10.8 µg/mL) | > 8 X MIC | 50 µM (≈ 21.7 µg/mL) | 25 µM (≈ 10.8 µg/mL) | 100 µM (≈ 43.3 µg/mL) | 25 µM (≈ 10.8 µg/mL) | 50 µM (≈ 21.7 µg/mL) | 25 µM (≈ 10.8 µg/mL) | 25 µM (≈ 10.8 µg/mL) | 50 µM (≈ 21.7 µg/mL) | ≤ 100 µM | filamentous or short rods (spheroplasts) morphology (PG synthesis inhibitors) | concentration that significantly (P < 0.01) reduced biofilm embedded APEC ([2]; no eradication): 1 X MIC; ranking in clearing intracellular APEC ([4]; all tested serotypes and cells): most effective SMs in clearing intracellular APEC serotypes in all tested cells; MBC (APEC O2-211): 50 µM (≈ 21.7 µg/mL); MIC (APEC O2-211): 25 µM (≈ 10.8 µg/mL); MBC (APEC O78-53): 50 µM (≈ 21.7 µg/mL); MIC (APEC O78-53): 25 µM (≈ 10.8 µg/mL); MBC (APEC O35): 50 µM (≈ 21.7 µg/mL); MIC (APEC O35): 25 µM (≈ 10.8 µg/mL); MBC (APEC O115): 50 µM (≈ 21.7 µg/mL); MIC (APEC O115): 25 µM (≈ 10.8 µg/mL); 260 nm absorbing materials in supernatant compared with DMSO (APEC O78 [6]): significantly (P < 0.05, Student’s t-test) increased; 280 nm absorbing materials in supernatant compared with DMSO (APEC O78 [6]): significantly (P < 0.05, Student’s t-test) increased; Absorbance 280 nm of treated supernatant (APEC O78 [6]): 2.73^a; Absorbance 260 nm of treated supernatant (APEC O78 [6]): 3.98^a; minimal effective concentration [7]: 50 µM; concentration at which the SM significantly (P < 0.01) reduced intracellular APEC (superscript of t-statistic) [7]: b (1X MIC); minimal effective concentration [8]: 100 µM; intracellular APEC clearance concentration as multiple of MIC (superscript) [8]: c (4X MIC); concentration at which the SM significantly (P < 0.01) reduced intracellular APEC (superscript of t-statistic) [8]: b (1X MIC)
2 | COc1ccc(CCN(Cc2cc3c(cc2Cl)OCO3)CC2CCN(C)CC2)cc1 [SM11] | 200 µM (≈ 86.2 µg/mL) | 100 µM (≈ 43.1 µg/mL) | increased the uptake of crystal violet | 100 µM (≈ 43.1 µg/mL) | 100 µM (≈ 43.1 µg/mL) | 200 µM (≈ 86.2 µg/mL) | 200 µM (≈ 86.2 µg/mL) | 100 µM (≈ 43.1 µg/mL) | 100 µM (≈ 43.1 µg/mL) | 4 X MIC | 200 µM (≈ 86.2 µg/mL) | 200 µM (≈ 86.2 µg/mL) | 200 µM (≈ 86.2 µg/mL) | 200 µM (≈ 86.2 µg/mL) | 200 µM (≈ 86.2 µg/mL) | 100 µM (≈ 43.1 µg/mL) | 100 µM (≈ 43.1 µg/mL) | 100 µM (≈ 43.1 µg/mL) | ≥ 100 µM | bright red foci at random positions throughout the cell indicating membrane defects (membrane pore formers) | MBEC as multiple of MIC (superscript) ([2]; 18 h challenge in M63 media): d (4X MIC); MBC relative to MIC (APEC O78 [3]): identical to MIC; MBC (APEC O2-211): 100 µM (≈ 43.1 µg/mL); MIC (APEC O2-211): 100 µM (≈ 43.1 µg/mL); MBC (APEC O78-53): 200 µM (≈ 86.2 µg/mL); MIC (APEC O78-53): 100 µM (≈ 43.1 µg/mL); MBC (APEC O35): 200 µM (≈ 86.2 µg/mL); MIC (APEC O35): 100 µM (≈ 43.1 µg/mL); MBC (APEC O115): 200 µM (≈ 86.2 µg/mL); MIC (APEC O115): 200 µM (≈ 86.2 µg/mL); 260 nm absorbing materials in supernatant compared with DMSO (APEC O78 [6]): significantly (P < 0.05, Student’s t-test) increased; 280 nm absorbing materials in supernatant compared with DMSO (APEC O78 [6]): significantly (P < 0.05, Student’s t-test) increased; Absorbance 280 nm of treated supernatant (APEC O78 [6]): 2.89^a; Absorbance 260 nm of treated supernatant (APEC O78 [6]): 4.00^a; minimal effective concentration [7]: 100 µM; concentration at which the SM significantly (P < 0.01) reduced intracellular APEC (superscript of t-statistic) [7]: a (0.5X MIC); minimal effective concentration [8]: 200 µM; intracellular APEC clearance concentration as multiple of MIC (superscript) [8]: b (2X MIC); concentration at which the SM significantly (P < 0.01) reduced intracellular APEC (superscript of t-statistic) [8]: b (1X MIC)
